The values below come from US8592408B2, “Fused aminodihydrothiazine derivatives” (Eisai R&D Management Co., Ltd., priority 2011, dated 2013).

One data set has as its target BACE-1 (Homo sapiens, UniProt P56817). The following applies: cited from earlier work.
For data set [1] the following is noted: TASTPM mice, cited from earlier work; for brain concentration: oral dose of 250 mg/kg.
In the next data set the test system is Aβ40. Particulars: TASTPM mice, cited from earlier work.
Data set [2] has as its target T1, P-glycoprotein (MDR1-MDCK cells) (Homo sapiens, UniProt P08183).
T1 construct: assay run at Cyprotex Discovery Ltd; host or cells: MDCK (canine kidney epithelial) cells stably transfected with MDR1
The data set is described as follows: MDR1-MDCK permeability (bi-directional) Pgp efflux assay. In kind it is in vitro ADME. Particulars: MDR1-MDCK, pH 7.4/pH 7.4, 10 μM, 60 min; ER=Papp(B-A)/Papp(A-B). On the procedure: (§1) Test compound permeability was assessed in duplicate.
(§2) Test and control compounds were quantified by LC-MS/MS cassette analysis using a 5-point calibration with appropriate dilution of the samples. Cyprotex generic analytical conditions were used. The starting concentration (C0) was determined from the dosing solution and the experimental recovery calculated from C0 and both apical and basolateral compartment concentrations.
(§3) Lucifer yellow permeation is low if monolayers have not been damaged.
(§4) Where dQ/dt is the rate of permeation of the drug across the cells, C0 is the donor compartment concentration at time zero and A is the area of the cell monolayer.

Data set [3] in a line: Rat in vivo CNS penetration (plasma, brain and CSF concentrations). Particulars: 10 mg/kg p.o.; for Kp at 2 h / Kp at 4 h / Kp at 6 h / Kp at 8 h: male, Sprague Dawley, po, rat. On the procedure:
Rat In Vivo CNS Penetration
Male Sprague Dawley rats were acquired from Charles River UK Ltd. (Margate, UK) and housed according to UK Home Office guidelines. Drugs were made up to the appropriate concentrations in 0.5% methyl cellulose. Animals were dosed orally (2 mL/kg) by gavage at the doses outlined in Tables 2 to 4 below.
At the time points post-dosing, specified in Tables 2 to 4 below the animals were administered an i.p. injection of sodium pentobarbitone (approximately 330 mg/kg for terminal anaesthesia).
Using a guillotine, the animals were decapitated and trunk blood collected into 15 ml Falcon tubes containing 100 IU heparin. Blood was vortexed followed by centrifugation at 6000 rpm, 4° C. for 5 minutes. Plasma was collected for DMPK and ELISA assays and stored at −80° C. until use. Brains were dissected out and divided along the midline, weighed and stored at −80° C. until further use.
Method for Analysis of Plasma, Brain and CSF Samples
Test compound was prepared as a 1 mg free base/mL solution in DMSO, vortexed and sonicated for 5 min. The 1 mg/mL DMSO solution was diluted to 10 and 30 μg/mL acetonitrile stocks, by adding 10 μL to 990 μL acetonitrile and 30 μL to 970 μL acetonitrile, respectively. The 10 and 30 μg/mL acetonitrile stocks were then serially diluted 1:9 (v/v) (100 μL stock into 900 μL acetonitrile) to give the following solutions: 0.003, 0.01, 0.03, 0.1, 0.3, 1, 3, 10 and 30 μg/mL acetonitrile.
Control male Sprague Dawley rat plasma and the study plasma samples were stored at −80° C. until the day of analysis when they were thawed at room temperature. Control plasma was centrifuged (2,000 g for 10 min) and aliquoted (90 μL) into eppendorf tubes for preparation of standards and blank samples. Study samples were previously aliquoted (100 μL) into eppendorf tubes immediately following collection of the plasma.
Double blank and blank samples were prepared by adding 10 μL of acetonitrile to 90 μL of blank plasma.
Control male Sprague Dawley rat brain and the study brain samples were weighed after collection and stored at −80° C. until the day of analysis when they were thawed at room temperature. Once thawed brains were diluted with water (4 mL per gram of tissue) and homogenised using a mechanical homogeniser. An aliquot (100 μL) of each study sample was taken into Micronics tubes ready for analysis and sufficient aliquots (90 μL) of control brain homogenate prepared for preparation of standards and blanks.
Double blank and blank samples were prepared by adding 10 μL of acetonitrile to 90 μL of blank brain homogenate.
Each plasma and brain homogenate sample, standard and blank (100 μL) was extracted with an aliquot (300 μL) of acetonitrile (containing 0.1% formic acid and 100 ng/mL of an appropriate internal standard). Double blanks were extracted with an aliquot (300 μL) of acetonitrile containing 0.1% formic acid). All samples, standards and blanks were then vortex mixed and centrifuged (2000 g for 15 min). An aliquot (50 μL) of the resulting supernatant was then taken into a 2 mL 96-deep well plate and diluted with acetonitrile:water (50:50 v/v) (150 μL) ready for analysis by a specific LC-MS/MS method.
Control male Sprague Dawley rat CSF and the study CSF samples were stored at −80° C. until the day of analysis when they were thawed at room temperature. An aliquot (50 μL) of each study sample was taken into Micronics tubes ready for analysis and sufficient aliquots (45 μL) of control CSF prepared for preparation of standards and blanks.
Double blank and blank samples were prepared by adding 5 μL of acetonitrile to 45 μL of blank CSF.
Each CSF sample, standard and blank (50 μL) was extracted with an aliquot (150 μL) of acetonitrile (containing 0.1% formic acid and 100 ng/mL of an appropriate internal standard). Double blanks were extracted with an aliquot (150 μL) of acetonitrile containing 0.1% formic acid.

Data set [4] is described as follows: Plasma protein binding (PPB), rapid equilibrium dialysis. The following applies: male, Sprague Dawley, rat, RED 6 h 37° C. Type of data set: in vitro ADME. On the procedure:
(§5) Method For Determination of Plasma Protein Binding (PPB) and Brain Tissue Binding (BTB)
(§6) On the morning of dialysis, control male Sprague Dawley rat plasma and brain, previously stored at −80° C. were thawed at room temperature. Plasma was checked for pH and if necessary adjusted to 7.4 with 1M HCl. Plasma was then centrifuged (2000 g for 10 min) and the brains diluted with 2 mL of Phosphate Buffered Saline (pH 7.4) per gram of tissue and homogenised using a mechanical homogeniser.
(§7) The Rapid Equilibrium Dialysis (RED) plate (Thermo Scientific) was prepared in accordance with the manufacturers guidelines i.e. the base plate was soaked in 20% (v/v) ethanol for 10 min and then rinsed twice with deionised water before being allowed to dry. […] The plate was then covered with an adhesive and incubated in air at 37° C. for 6 h with 130 rpm agitation.
(§8) Following the 6 h incubation, the seal was removed and an aliquot (50 μL) taken from the PBS chambers and dispensed into Micronics tubes. […]
(§9) Samples were vortex mixed and an aliquot (300 μL) of acetonitrile containing 0.1% formic acid and 100 ng/mL of an appropriate internal standard added. Samples were then mixed and centrifuged (2000 g for 15 min) and an aliquot of the supernatant (100 μL) removed into a 96-deep well plate and diluted with an equal volume of water ready for analysis by LC-MS/MS.
Background: Equilibrium dialysis compares concentrations on both sides of a semipermeable membrane.

The nature of data set [5]: Brain tissue binding (BTB), rapid equilibrium dialysis. Particulars: rat brain homogenate, RED 6 h 37° C. Type of data set: in vitro ADME. On the procedure: as §5, §6, §7, §8, §9
Data set [6] in a line: Effects on QTc interval in anaesthetised guinea pigs. In kind it is in vivo. Particulars: anaesthetised guinea pig, i.v. infusion 2.0, 6.0, 20 mg/kg/10 min, up to the highest dose/concentration tested.
Experimental: Assessment of Effects on QTc Interval in Guinea Pigs
Male Dunkin-Hartley guinea pigs were weighed and anaesthetised using 4% isoflurane in carbogen. […] Xylazine at 2 mg/kg i.m. was administered into the hind limb as a bradycardic agent to enable detection of QTc prolongation by the software.
The carotid artery and jugular vein were cannulated with lines containing heparinised saline and a 3-lead ECG connected and monitored using LabChart Pro software. Animals were allowed to stabilise for 30 minutes after the completion of the surgical procedure, before the initiation of an i.v. vehicle (5% DMSO/90% MilliQ/5% 0.1N HCl) infusion from time zero (infusion rate=0.2 ml/kg/min). At 10 mins, an arterial blood sample was collected for PK analysis (150u1; all collection syringes were heparinised). At 12 mins, drug infusion was started @ 2.0 mg/kg/10 min i.v. The dose was increased to 6.0 mg/kg/10 min, then 20 mg/kg/10 min i.v., with a 10 minutes infusion period and two minutes blood sampling at each dose. After the final dose, a blood sample was taken and a second vehicle infusion initiated. Eight minutes later a terminal blood sample was collected for plasma PK analysis and the animal killed by a Schedule 1 method.
QTc (Bazett's) changes were analysed using LabChart Pro software.
The nature of data set [7]: Effects on QTc interval in anaesthetised beagle dogs. In kind it is in vivo. Particulars: anaesthetised beagle dog, infusion 1, 3, 10 mg/kg/10 min, up to the highest dose/concentration tested. On the procedure:
Assessment of Effects on QTc Interval in Beagle Dogs
Male beagle dogs were weighed and injected with sodium thiopental for induction of anesthesia.
The carotid artery and saphenous vein were cannulated with lines containing heparinised saline and a LII ECG connected and monitored using polygraph system. Animals were allowed to stabilise for 30 minutes before the infusion of compound solution and the infusion via cannula was started from time zero with 1 mg/kg/10 min. The dose was increased to 3 mg/kg/10 min, then 10 mg/kg/10 min. An arterial blood sample was collected after every dosing for PK analysis.

The test system of data set [8] is Aβ peptide production in rat primary neuronal culture. Put plainly: Quantification of Aβ peptide in culture of neurons from rat fetus brain (Aβ ELISA). Type of data set: cell-based. The following applies: Primary cortical neuron, Aβ species (ABx-40 1 day / ABx-42 3 days) not given. (In general: ELISA stands for enzyme-linked immunosorbent assay.)
The target of another data set is T2, P-glycoprotein (MDR1) (Homo sapiens, UniProt P08183).
T2 construct: assay run at Cyprotex Discovery Ltd; host or cells: MDCK (canine kidney epithelial) cells stably transfected with MDR1
T2 sequence (P08183 whole entry): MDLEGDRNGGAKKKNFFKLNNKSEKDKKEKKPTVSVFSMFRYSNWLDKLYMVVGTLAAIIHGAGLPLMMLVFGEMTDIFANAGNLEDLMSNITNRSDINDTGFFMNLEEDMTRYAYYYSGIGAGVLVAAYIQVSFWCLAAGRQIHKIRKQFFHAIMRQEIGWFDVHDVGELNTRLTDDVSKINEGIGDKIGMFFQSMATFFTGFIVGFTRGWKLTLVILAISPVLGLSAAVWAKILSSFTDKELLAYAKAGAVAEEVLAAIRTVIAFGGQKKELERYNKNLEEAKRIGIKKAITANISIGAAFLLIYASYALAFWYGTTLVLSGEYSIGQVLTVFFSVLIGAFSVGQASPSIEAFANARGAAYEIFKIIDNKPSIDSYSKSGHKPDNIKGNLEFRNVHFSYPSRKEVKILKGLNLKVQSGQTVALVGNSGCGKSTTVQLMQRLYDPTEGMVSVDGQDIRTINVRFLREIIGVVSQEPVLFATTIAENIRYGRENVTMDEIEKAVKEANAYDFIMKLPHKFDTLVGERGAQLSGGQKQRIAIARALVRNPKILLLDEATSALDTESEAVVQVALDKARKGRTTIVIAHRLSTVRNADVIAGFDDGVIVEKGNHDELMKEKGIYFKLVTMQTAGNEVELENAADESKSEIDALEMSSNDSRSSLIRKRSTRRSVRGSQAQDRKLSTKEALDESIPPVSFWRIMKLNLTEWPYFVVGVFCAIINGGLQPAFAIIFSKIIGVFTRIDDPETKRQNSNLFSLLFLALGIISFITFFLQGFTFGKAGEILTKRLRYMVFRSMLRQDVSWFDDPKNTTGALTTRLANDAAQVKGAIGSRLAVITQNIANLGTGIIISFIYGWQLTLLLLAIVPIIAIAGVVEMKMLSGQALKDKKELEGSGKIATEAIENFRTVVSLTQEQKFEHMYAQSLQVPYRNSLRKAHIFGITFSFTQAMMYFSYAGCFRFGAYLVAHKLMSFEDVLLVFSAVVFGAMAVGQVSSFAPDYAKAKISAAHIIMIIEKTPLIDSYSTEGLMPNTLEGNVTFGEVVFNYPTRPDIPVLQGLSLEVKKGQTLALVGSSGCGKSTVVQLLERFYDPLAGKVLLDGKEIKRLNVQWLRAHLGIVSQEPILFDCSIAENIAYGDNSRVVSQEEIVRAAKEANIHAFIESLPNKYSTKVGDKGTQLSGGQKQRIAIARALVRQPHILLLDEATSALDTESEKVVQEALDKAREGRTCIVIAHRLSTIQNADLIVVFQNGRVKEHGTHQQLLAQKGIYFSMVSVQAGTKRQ
Put plainly: MDR1-MDCK permeability (bi-directional) Pgp efflux assay. Type of data set: in vitro ADME. Particulars: dog, MDCK-MDR1, pH 7.4; read-out: Pgp ER. On the procedure: as §1, §2, §3, §4

Data set [9] concerns Salmonella typhimurium tester strains TA98, TA100, TA1535 and TA1537 and Escherichia coli tester strain WP2 uv. The data set is described as follows: Ames test. In kind it is cell-based. The following applies: absence and presence of rat liver S9, up to highest dose tested 5000 ug/plate. On the procedure: The title compound was subjected to an Ames test (Salmonella typhimurium tester strains TA98, TA100, TA1535 and TA1537 and Escherichia coli tester strain WP2 uv. Mutation Research 1975, 31, 347; Mutation Research 1976, 38, 3; Proc. Nat. Acad. Sci. USA 1976, 73, 950; Proc. Nat. Acad. Sci. USA 1975, 72, 5135) in the absence and presence of rat liver S9. The compound was negative up to the highest dose/concentration tested (5000 ug/plate).
(In general: The Ames test uses bacterial strains that need an amino acid and regain growth without it when mutated back.)

Setting [10] is: CSF / plasma (unbound), read-out: CSF:Plu.
[11] abbreviates: brain (total) / plasma (total), read-out: Brtot:Pltot.
Where [12] appears, read: brain (unbound) / plasma (unbound), read-out: Bru:Plu.

Each structure is given as a SMILES string. Where two headings read alike, the source gives them in different places.

BACE-1, sequence (P56817 46-501, species assumed): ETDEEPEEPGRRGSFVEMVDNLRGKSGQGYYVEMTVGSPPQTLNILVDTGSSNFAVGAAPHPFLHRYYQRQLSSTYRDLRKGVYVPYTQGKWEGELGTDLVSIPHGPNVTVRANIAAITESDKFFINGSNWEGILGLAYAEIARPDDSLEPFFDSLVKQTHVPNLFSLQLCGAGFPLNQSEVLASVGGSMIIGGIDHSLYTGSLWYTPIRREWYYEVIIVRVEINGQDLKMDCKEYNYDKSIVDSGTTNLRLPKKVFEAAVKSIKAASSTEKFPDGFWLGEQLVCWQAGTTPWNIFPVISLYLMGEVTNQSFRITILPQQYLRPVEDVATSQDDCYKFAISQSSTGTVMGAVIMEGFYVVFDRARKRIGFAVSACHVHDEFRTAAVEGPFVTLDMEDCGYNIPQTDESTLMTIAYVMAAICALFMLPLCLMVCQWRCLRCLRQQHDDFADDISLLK
T1 sequence (P08183 whole entry): as the sequence (P08183 whole entry) above

As for `CCNc1cc(C(=O)N[C@@H](Cc2ccccc2)[C@H](O)CNCc2cccc(C(F)(F)F)c2)c(F)c(N2CCCCS2(=O)=O)c1` [GSK188909], the IC50 (usually the concentration needed to halve the response being measured) at BACE-1 is 5 nM. For the same molecule, in data set [1] (250 mg/kg oral, with vs without GF120918), the “increase in CNS penetration by co-administration of a Pgp inhibitor” value is given as roughly 9 fold. In addition, the brain concentration was 5.43 µM in data set [1] (Pgp inhibitor GF120918 dosed 5 hours before) and 0.62 µM in [1] (no Pgp inhibitor). Besides, in the data set with Aβ40 (250 mg/kg oral dose, absence of a Pgp inhibitor), the “effect on brain Aβ40 levels” value is given as “did not have any effect”. In addition, in the data set on Aβ40 (250 mg/kg oral, Pgp inhibitor co-administered 5 hours prior), the “reduction in brain Aβ40 levels relative to vehicle treated mice” value is 68%.

For the molecule `NC1=N[C@@]2(c3cc(NC(=O)c4cnc(CF)cn4)ccc3F)CO[C@H](C(F)(F)F)[C@H]2CS1` [Example 8, N-(3-((4aS,5S,7aS)-2-amino-5-(trifluoromethyl)-4a,5,7,7a-tetrahydro-4H-furo[3,4-d][1,3]thiazin-7a-yl)-4-fluorophenyl)-5-(fluoromethyl)pyrazine-2-carboxamide], the “Pgp ER” value in data set [2] is given as 1.7. The figures for the Kp at 2 h in [3] (setting [10]), in data set [3] (setting [11]) and in data set [3] (setting [12]) were 0.5, 3.3 and 0.7, respectively. Besides, the Kp at 4 h stood at 0.6 in data set [3] (setting [10]), 3.9 in [3] (setting [11]) and 0.8 in data set [3] (setting [12]). Besides, the results for the Kp at 6 h in [3] (setting [10]), in data set [3] (setting [11]) and in data set [3] (setting [12]) were 0.5, 3.7 and 0.8, respectively. Besides, the Kp at 8 h in data set [3] (brain (total) / plasma (total), 8 h, read-out: Brtot:Pltot) is 3.8; in data set [3] (brain (unbound) / plasma (unbound), 8 h, read-out: Bru:Plu), 0.8. Further, the “[CSF]” value in data set [3] (rat CSF, 8 h) is listed as “^3n.q”. In addition, the fraction unbound at 6 h, 1 μg/mL in data set [4] (pH 7.4, fraction unbound, rat plasma, mean of n = 3, read-out: Rat Plasma fu) is 0.104; in [4] (pH 7.4, rat plasma, mean of n = 3, read-out: Rat PPB (%) (converted)) it was 0.104; in data set [5] (male, Sprague Dawley, pH 7.4, fraction unbound, mean of n = 3, read-out: Rat Brain fu), 0.022. The “Rat BTB (%)” value in data set [5] (1 μg/mL, mean of n = 3) worked out at 97.8%. For the same molecule, the “QTc (Bazett's) change” value in [6] is “unchanged”. Moreover, the QTc change result in [7] is on record as “unchanged”. In [8], this molecule came in with an IC50 of 6 nM.

Take `COCc1cnc(C(=O)Nc2ccc(F)c([C@]34CO[C@H](C(F)(F)F)[C@H]3CSC(N)=N4)c2)cn1` [Example 13, N-(3-((4aS,5S,7aS)-2-amino-5-(trifluoromethyl)-4a,5,7,7a-tetrahydro-4H-furo[3,4-d][1,3]thiazin-7a-yl)-4-fluorophenyl)-5-(methoxymethyl)pyrazine-2-carboxamide]: the efflux ratio at 60 min, 10 μM at P-glycoprotein (MDR1) is 1.7. Further, in [8], the IC50 stood at 44 nM.

`NC1=N[C@@]2(c3cc(N)ccc3F)CO[C@H](C(F)(F)F)[C@H]2CS1` [1-(25), (4aS,5S,7aS)-7a-(5-amino-2-fluorophenyl)-5-(trifluoromethyl)-4a,5,7,7a-tetrahydro-4H-furo[3,4-d][1,3]thiazin-2-amine]: the Ames test result in data set [9] was “negative”.
